Test results reported in the CheMixHub ionic liquid set.
Values joined by “and” are separate entries in the source; they are usually repeats but may differ in a detail not shown here. Equal entries are not always repeated.

Test: xn = mol fraction of the nth substance listed
Conditions: 101 kPa

O=S(=O)([N-]S(=O)(=O)C(F)(F)C(F)(F)F)C(F)(F)F.[Li+] + O=S(=O)([O-])C(F)(F)F.[Li+] + O
Conditions	electrical conductivity, x1 = 0.1527, x2 = 0.1527 [S/m]	electrical conductivity, x1 = 0.2128, x2 = 0.08265	electrical conductivity, x1 = 0.2128, x2 = 0.1527 [S/m]	electrical conductivity, x1 = 0.2551, x2 = 0.08265	electrical conductivity, x1 = 0.2649, x2 = 0 [S/m]	electrical conductivity, x1 = 0.3106, x2 = 0.1527 [S/m]	viscosity, x1 = 0.2128, x2 = 0.08265 [mPa·s]	viscosity, x1 = 0.2551, x2 = 0.08265 [mPa·s]	viscosity, x1 = 0.2649, x2 = 0 [mPa·s]
283 K	–	0.39 S/m	–	0.195 S/m	0.36	–	186	406	255
293 K	–	0.57 S/m	–	0.298 S/m	0.531	–	110	228	145
298.1 K	0.83	0.675 S/m and 0.68 S/m	0.41	0.362 S/m and 0.37 S/m	0.646	0.16	87	177	114
303 K	–	0.788 S/m	–	0.433 S/m	0.762	–	70.9	141	89.8
313 K	–	1.05 S/m	–	0.599 S/m	1.02	–	48.4	90.1	58.8
323 K	–	1.36 S/m	–	0.791 S/m	1.33	–	33.9	61.6	40.2
333 K	–	1.7 S/m	–	1.02 S/m	1.67	–	24.8	43.2	29.1

C[N+](C)(CCO)CCOCCO.[Cl-] + OCCO
x1 = 0.3333
Conditions	viscosity [mPa·s]
283.15 K	242.4
288.15 K	177.4
293.15 K	131.9
298.15 K	100.9
303.15 K	78.8
308.15 K	62.2
313.15 K	49.8
318.15 K	40.49
323.15 K	33.3
328.15 K	27.72
333.15 K	23.38
338.15 K	19.82
343.15 K	17
348.15 K	14.73
353.15 K	12.94
